Four molecules from US12227515B2, “In-flow photooxygenation of aminothienopyridinones generates novel PTP4A3 phosphatase inhibitors” (University of Virginia Patent Foundation, priority 2018, dated 2025) can be followed below.

Experiment [1] addresses recombinant human His6-tagged PTP4A3 (Homo sapiens (Human), UniProt O75365). The experiment is described as follows: In vitro biochemical analysis of PTP4A inhibition, DiFMUP substrate. The note with it: for preference among the PTP4A family members: PTP4A3 versus PTP4A1 and PTP4A2, from IC50 values.
For experiment [2], the target named is recombinant human His6-tagged PTP4A2 (Homo sapiens (Human), UniProt Q12974). The experiment is described as above. As to conditions: DiFMUP 12 μM, 25 minutes, 25° C.; mean ± S.E.M.
recombinant human His6-tagged PTP4A2, sequence (Q12974 whole entry): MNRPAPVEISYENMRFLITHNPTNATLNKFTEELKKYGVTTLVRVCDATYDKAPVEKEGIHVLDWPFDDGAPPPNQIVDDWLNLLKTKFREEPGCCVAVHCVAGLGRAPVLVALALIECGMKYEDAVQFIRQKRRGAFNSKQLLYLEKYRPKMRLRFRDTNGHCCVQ

SMILES strings stand for the structures.

recombinant human His6-tagged PTP4A3, sequence (O75365 whole entry): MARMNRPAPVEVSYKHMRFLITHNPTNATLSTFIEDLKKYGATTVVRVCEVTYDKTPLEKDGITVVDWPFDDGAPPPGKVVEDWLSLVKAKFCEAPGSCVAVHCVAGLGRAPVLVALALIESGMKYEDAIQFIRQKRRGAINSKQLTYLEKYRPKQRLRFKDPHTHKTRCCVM

`N=C1C(=O)NC(=O)c2cc(-c3ccccc3Cl)sc21` [Compound 9k, 2-(2-Chlorophenyl)-7-iminothieno[3,2-c]pyridine-4,6(5H,7H)-dione]: in experiment [1], the “preference among the PTP4A family members” value is “even more pronounced preference for PTP4A3 compared with PTP4A2”. In addition, the IC50 (usually the concentration that inhibits the measured activity by half) in experiment [2] is 113 nM. Turning to `N=C1C(=O)NC(=O)c2cc(-c3ccc(OCCN4CCOCC4)cc3)sc21` [Compound 9o, 7-Imino-2-(4-(2-morpholinoethoxy)phenyl)thieno[3,2-c]pyridine-4,6(5H,7H)-dione], the “preference among the PTP4A family members” value in experiment [1] is listed as “little preference”. For `CN1C(=O)C(=N)c2sc(-c3ccccc3)cc2C1=O` [Compound 9p, 7-Imino-5-methyl-2-phenylthieno[3,2-c]pyridine-4,6(5H,7H)-dione], in experiment [1], the “preference among the PTP4A family members” value is listed as “even more pronounced preference for PTP4A3 compared with PTP4A2”. Besides, in experiment [2], the IC50 came out at 264 nM.

With `O=c1[nH]c(=O)c2cc(-c3ccccc3)sc2[nH]1` [JMS-038, 6-phenylthieno[2,3-d]pyrimidine-2,4(1H,3H)-dione, reference compound], the “IC50 PTP4A3” value in experiment [1] (DiFMUP 12 μM, 25 minutes, 25° C., mean ± S.E.M.) is on record as “failed to inhibit PTP4A3”.
